# According to patent publication US12187728B2 (Raze Therapeutics, Inc., priority 2015, dated 2025):
# Target: T1, Human MTHFD2 (Homo sapiens, UniProt P13995)
# T1 construct: residues 36-350 in Uniport ID P13995; His6 (N); made in house; host or cells: E. coli
# T1 sequence (P13995 36-350): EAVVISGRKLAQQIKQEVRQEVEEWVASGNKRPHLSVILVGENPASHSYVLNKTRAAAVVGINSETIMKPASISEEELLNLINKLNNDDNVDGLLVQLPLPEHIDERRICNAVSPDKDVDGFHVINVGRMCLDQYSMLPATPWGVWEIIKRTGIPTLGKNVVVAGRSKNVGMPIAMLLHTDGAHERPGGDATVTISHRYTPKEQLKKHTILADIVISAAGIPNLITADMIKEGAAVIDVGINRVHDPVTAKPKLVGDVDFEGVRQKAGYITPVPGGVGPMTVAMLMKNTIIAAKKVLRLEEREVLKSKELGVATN
# Assay: MTHFD2 Activity Assay (dehydrogenase activity, diaphorase/resazurin coupled fluorescence)
# Assay type: biochemical
# Settings: inhibitory activity (IC50 and/or binding constant); 0.2 nM MTHFD2, 11 concentrations
# Summary of the method: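 Steps: compound + 0.2 nM enzyme, 15 min, pH 8.0 Hepes buffer; add 70 μM CH2-THF, 1 mM NAD+, 100 μM resazurin, diaphorase; 30 min; quench with EDTA; read fluorescence. Data normalized to DMSO (100%) and no-enzyme (0%) wells.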
row,SMILES,IC50
1,"Cn1c(C(N)C2CCOCC2)nc2c1c(=O)n(Cc1cc3c(Cl)cccc3[nH]1)c(=O)n2C (stereo not drawn) [Example 454, 8-[amino(tetrahydropyran-4-yl)methyl]-1-[(4-chloro-1H-indol-2-yl)methyl]-3,7-dimethyl-purine-2,6-dione]",0.01 to 1 µM
2,"Cn1c(C(N)C2CCOCC2)nc2c1c(=O)n(Cc1[nH]c3cccc(Cl)c3c1Cl)c(=O)n2C (stereo not drawn) [Example 455, 8-[amino(tetrahydropyran-4-yl)methyl]-1-[(3,4-dichloro-1H-indol-2-yl)methyl]-3,7-dimethyl-purine-2,6-dione]",0.01 to 1 µM
3,"CC(N)c1nc2c(c(=O)n(Cc3[nH]c4cccc(Cl)c4c3Cl)c(=O)n2C)n1C (stereo not drawn) [Example 456, 8-(1-aminoethyl)-1-[(3,4-dichloro-1H-indol-2-yl)methyl]-3,7-dimethyl-purine-2,6-dione]",0.01 to 1 µM
4,"CC(c1nc2c(c(=O)n(Cc3cc4c(Cl)cccc4[nH]3)c(=O)n2C)n1C)N(C)C (stereo not drawn) [Example 457, 1-[(4-chloro-1H-indol-2-yl)methyl]-8-[1-(dimethylamino)ethyl]-3,7-dimethyl-purine-2,6-dione]",0.01 to 1 µM
5,"Cn1c(C(N)CO)nc2c1c(=O)n(Cc1cc3c(Cl)cccc3[nH]1)c(=O)n2C (stereo not drawn) [Example 458, 8-(1-amino-2-hydroxy-ethyl)-1-[(4-chloro-1H-indol-2-yl)methyl]-3,7-dimethyl-purine-2,6-dione]",0.01 to 1 µM
6,"CCn1c(=O)n(Cc2ccc3c(C)cccc3c2)c(=O)c2c1nc(C(C)N)n2C (stereo not drawn) [Example 459, 8-(1-aminoethyl)-3-ethyl-7-methyl-1-((5-methylnaphthalen-2-yl)methyl)-1H-purine-2,6(3H,7H)-dione]",0.01 to 1 µM
7,"Cn1c(Nc2ccncc2)nc2c1c(=O)n(Cc1cc3cnccc3[nH]1)c(=O)n2C [Example 460, 1-((1H-pyrrolo[3,2-c]pyridin-2-yl)methyl)-3,7-dimethyl-8-(pyridin-4-ylamino)-1H-purine-2,6(3H,7H)-dione]",0.01 to 1 µM
8,"Cn1c(C(N)c2ccncc2)nc2c1c(=O)n(Cc1cc3c(Cl)cccc3[nH]1)c(=O)n2C (stereo not drawn) [Example 461, 8-(amino(pyridin-4-yl)methyl)-1-((4-chloro-1H-indol-2-yl)methyl)-3,7-dimethyl-1H-purine-2,6(3H,7H)-dione]",0.01 to 1 µM
9,"Cn1c(Nc2ccnc(CNC(N)=O)n2)nc2c1c(=O)n(Cc1cc3c(Cl)cccc3[nH]1)c(=O)n2C [Example 462, 1-((4-(1-((4-chloro-1H-indol-2-yl)methyl)-3,7-dimethyl-2,6-dioxo-2,3,6,7-tetrahydro-1H-purin-8-ylamino)pyrimidin-2-yl)methyl)urea]",0.01 to 1 µM
10,"CCc1cccc2cc(Cn3c(=O)c4c(nc(C(C)N)n4C)n(C)c3=O)ccc12 (stereo not drawn) [Example 463, 8-(1-aminoethyl)-1-((5-ethylnaphthalen-2-yl)methyl)-3,7-dimethyl-1H-purine-2,6(3H,7H)-dione]",0.01 to 1 µM
11,"Cn1c(C(N)C2CCCC2)nc2c1c(=O)n(Cc1cc3c(Cl)cccc3[nH]1)c(=O)n2C (stereo not drawn) [Example 464, 8-(amino(cyclopentyl)methyl)-1-((4-chloro-1H-indol-2-yl)methyl)-3,7-dimethyl-3,7-dihydro-1H-purine-2,6-dione]",0.01 to 1 µM
12,"Cn1c(C(N)C(CO)CO)nc2c1c(=O)n(Cc1cc3c(Cl)cccc3[nH]1)c(=O)n2C (stereo not drawn) [Example 465, 8-[1-amino-3-hydroxy-2-(hydroxymethyl)propyl]-1-[(4-chloro-1H-indol-2-yl)methyl]-3,7-dimethyl-purine-2,6-dione]",0.01 to 1 µM
13,"Cn1c(Nc2ccncc2)nc2c1c(=O)n(Cc1cc3c(Cl)cccc3[nH]1)c(=O)n2C1CC1 [Example 466, 1-[(4-chloro-1H-indol-2-yl)methyl]-3-cyclopropyl-7-methyl-8-(4-pyridylamino)purine-2,6-dione]",0.01 to 1 µM
14,"Cn1c(C(N)C2COC2)nc2c1c(=O)n(Cc1cc3c(Cl)cccc3[nH]1)c(=O)n2C (stereo not drawn) [Example 467, 8-[amino(oxetan-3-yl)methyl]-1-[(4-chloro-1H-indol-2-yl)methyl]-3,7-dimethyl-purine-2,6-dione]",5 to 10 µM
15,"Cn1c(/C(=N/O)c2ccncc2)nc2c1c(=O)n(Cc1cc3c(Cl)cccc3[nH]1)c(=O)n2C [Example 468, (E)-1-((4-chloro-1H-indol-2-yl)methyl)-8-((hydroxyimino)(pyridin-4-yl)methyl)-3,7-dimethyl-1H-purine-2,6(3H,7H)-dione or (Z)-1-((4-chloro-1H-indol-2-yl)methyl)-8-((hydroxyimino)(pyridin-4-yl)methyl)-3,7-dimethyl-1H-purine-2,6(3H,7H)-dione]",0.01 to 1 µM
16,"Cn1c(Nc2ccnc(CN)n2)nc2c1c(=O)n(Cc1cc3c(Cl)cccc3[nH]1)c(=O)n2C [Example 469, 8-(2-(aminomethyl)pyrimidin-4-ylamino)-1-((4-chloro-1H-indol-2-yl)methyl)-3,7-dimethyl-1H-purine-2,6(3H,7H)-dione]",0.01 to 1 µM
17,"Cn1c([C@H](N)Cc2cccnc2)nc2c1c(=O)n(Cc1cc3c(Cl)cccc3[nH]1)c(=O)n2C [Example 470, (R)-8-(1-amino-2-(pyridin-3-yl)ethyl)-1-((4-chloro-1H-indol-2-yl)methyl)-3,7-dimethyl-1H-purine-2,6(3H,7H)-dione]",0.01 to 1 µM
18,"Cn1c([C@H](N)Cc2ccccn2)nc2c1c(=O)n(Cc1cc3c(Cl)cccc3[nH]1)c(=O)n2C [Example 472, (R)-8-(1-amino-2-(pyridin-2-yl)ethyl)-1-((4-chloro-1H-indol-2-yl)methyl)-3,7-dimethyl-1H-purine-2,6(3H,7H)-dione]",0.01 to 1 µM
19,"Cn1c(C(N)c2ccccn2)nc2c1c(=O)n(Cc1cc3c(Cl)cccc3[nH]1)c(=O)n2C (stereo not drawn) [Example 473, 8-(amino(pyridin-2-yl)methyl)-1-((4-chloro-1H-indol-2-yl)methyl)-3,7-dimethyl-1H-purine-2,6(3H,7H)-dione]",0.01 to 1 µM
20,"Cn1c(Nc2ccncc2)nc2c1c(=O)n(Cc1cc3c(Cl)ccc(F)c3[nH]1)c(=O)n2C [Example 474, 1-((4-chloro-7-fluoro-1H-indol-2-yl)methyl)-3,7-dimethyl-8-(pyridin-4-ylamino)-1H-purine-2,6(3H,7H)-dione]",0.01 to 1 µM
21,"Cc1cc(Nc2nc3c(c(=O)n(Cc4cc5c(Cl)cccc5[nH]4)c(=O)n3C)n2C)nc(CCC(N)=O)n1 [Example 475, 3-(4-(1-((4-chloro-1H-indol-2-yl)methyl)-3,7-dimethyl-2,6-dioxo-2,3,6,7-tetrahydro-1H-purin-8-ylamino)-6-methylpyrimidin-2-yl)propanamide]",0.01 to 1 µM
22,"Cn1c(=O)n(Cc2cc3c(Cl)cccc3[nH]2)c(=O)c2c1nc1n2CCNC1 [Example 476, 3-((4-chloro-1H-indol-2-yl)methyl)-1-methyl-6,7,8,9-tetrahydropyrazino[1,2-f]purine-2,4(1H,3H)-dione]",0.01 to 1 µM
23,"Cn1c(Nc2ccncc2)nc2c1c(=O)n(Cc1cc3c(Cl)ccc(Cl)c3[nH]1)c(=O)n2C [Example 477, 1-((4,7-dichloro-1H-indol-2-yl)methyl)-3,7-dimethyl-8-(pyridin-4-ylamino)-1H-purine-2,6(3H,7H)-dione]",0.01 to 1 µM
24,"C/C(=N\O)c1nc2c(c(=O)n(Cc3cc4c(Cl)cccc4[nH]3)c(=O)n2C)n1C [Example 478, (E)-1-((4-chloro-1H-indol-2-yl)methyl)-8-(1-(hydroxyimino)ethyl)-3,7-dimethyl-1H-purine-2,6(3H,7H)-dione or (Z)-1-((4-chloro-1H-indol-2-yl)methyl)-8-(1-(hydroxyimino)ethyl)-3,7-dimethyl-1H-purine-2,6(3H,7H)-dione]",0.01 to 1 µM
25,"Cn1c(C(C(N)=O)c2ccncc2)nc2c1c(=O)n(Cc1cc3c(Cl)cccc3[nH]1)c(=O)n2C (stereo not drawn) [Example 480, 2-(1-((4-chloro-1H-indol-2-yl)methyl)-3,7-dimethyl-2,6-dioxo-2,3,6,7-tetrahydro-1H-purin-8-yl)-2-(pyridin-4-yl)acetamide]",0.01 to 1 µM
26,"C/C(=N/O)c1nc2c(c(=O)n(Cc3cc4c(Cl)cccc4[nH]3)c(=O)n2C)n1C [Example 481, (Z)-1-((4-chloro-1H-indol-2-yl)methyl)-8-(1-(hydroxyimino)ethyl)-3,7-dimethyl-1H-purine-2,6(3H,7H)-dione or (E)-1-((4-chloro-1H-indol-2-yl)methyl)-8-(1-(hydroxyimino)ethyl)-3,7-dimethyl-1H-purine-2,6(3H,7H)-dione]",0.01 to 1 µM
27,"CC(CN)c1nc2c(c(=O)n(Cc3cc4c(Cl)cccc4[nH]3)c(=O)n2C)n1C (stereo not drawn) [Example 485, 8-(1-aminopropan-2-yl)-1-((4-chloro-1H-indol-2-yl)methyl)-3,7-dimethyl-1H-purine-2,6(3H,7H)-dione]",0.01 to 1 µM
